# Tests used:
# [1] = test system: primary cortical neurons; experiment: cells; format: cell-based, mouse; settings: Mus musculus, Primary cortical neuron; 100 μM hemin, primary cortical neurons; read-out: EC50 for reduction of hemin-induced toxicity/ferroptosis
# Method: Primary cortical neuronal cultures: Primary cortical neurons were collected from embryonic (E15) CD1 mice. The cortices of the mice were dissected, homogenized, and plated in minimum essential medium containing 10% fetal bovine serum (FBS), 5% horse serum, and 1% penicillin/streptomycin in 96-well plates, 6-well plates, or 10-cm dishes. The neurons were maintained at 37° C. with 5% CO2. All experiments were conducted 24 hours after plating.
# In vitro ICH model: Ferroptosis is a type of programmed cell death that is dependent on iron, and is characterized by the accumulation of lipid peroxides. Ferroptosis is genetically and biochemically distinct from other forms of regulated cell death such as apoptosis. Ferroptosis is initiated by the failure of the glutathione-dependent antioxidant defenses, resulting in unchecked lipid peroxidation and eventual cell death.
# Cell death was induced in primary cortical neurons by treating the neurons with hemin, a blood breakdown product. For the neuroprotection studies, cells were treated with hemin (100 μM) in the presence of NAC (0.1 mM to 1mM), 6-hydroxy-2,5,7,8-tetramethylchroman-2-carboxylic acid (trolox; 0.1 μM to 100 μM), β-carotene (0.1 μM to 100 μM) α-lipoic acid (0.01 mM to 2 mM), glutathione ethyl ester (1 mM to 10 mM), oxothiazolidine-4-carboxylate (1 mM to 10 mM), cystamine (0.1 μM to 10 μM), or nordihydroguaiaretic acid (0.1 μM to 10 μM). Cell viability was analyzed 24 h after treatment. The cells were rinsed with warm phosphate-buffered saline (PBS) and assessed using an MTT assay. The fidelity of the MTT assays in measuring viability was verified by calcein-AM/ethidium homodimer-1 staining (Live/Dead assay).
# The ability of NAC to protect cells was investigated in a hemin model of hemorrhagic stroke. The in vitro model of ICH involved the administration of hemin, a breakdown product of hemoglobin from lysed blood, to trigger cell death. Treatment of primary cortical neurons with 100 μM hemin induced widespread cell death through a ferroptotic mechanism, which was quantified with MTT and qualitatively observed using live/dead staining. Living cells were labeled with calcein-AM, and dead cells were labeled with ethidium homodimer. […] Scale bars: 100 μm.
# A systematic pharmacological screening of oxidized lipid species inhibitors in the context of hemin-induced cell death was performed in primary cortical neurons. Primary cortical neurons were co-treated with hemin and a non-specific or enzymatic lipid peroxidation inhibitor. The MTT assays were performed 18 h following the co-treatment.
# [2] = test system: collagenase-induced mouse model of ICH; experiment: In vivo collagenase-induced mouse model of ICH (Fluoro-Jade staining, corner task, adhesive tape removal task, hematoma size)
# Method: In vivo collagenase-induced mouse model of ICH: Male C57BL/6 mice (8 to 10 weeks of age) or mice (10 to 12 weeks of age) were anesthetized with isoflurane (2% to 5%) and placed on a stereotaxic frame. During the procedure, the animal's body temperature was maintained at 37° C. with a homeothermic blanket. 1 mL of collagenase (0.075 IU) was infused into the right striatum at a flow rate of 0.120 μL/min using a Nanomite® syringe pump and a syringe. Relative to the bregma point, the stereotaxic coordinates of the injection were: lateral, −0.20; anteroposterior, 0.62; and dorsoventral, −0.40. In control animals, 1 mL of saline was infused. The treatment group received NAC (75 mg/kg or 300 mg/kg in normal saline, I.P.) once a day for 7 days starting at 2 h after collagenase infusion. For combinatorial studies, NAC (40 mg/kg, I.P.) and PGE 2 (10 μM, ICV) were administered to the mice 2 h after the collagenase injection, and then NAC (40 mg/kg) was administered once daily for 7 days. The control groups received the vehicle (normal saline) alone. The animals were randomized to sham or ICH groups. The identities of the mice that received vehicle or NAC were masked to surgeons who performed the experiments. […] Proper postoperative care was provided until the animals recovered completely.
# Behavioral analysis: The corner task assessed integrated sensorimotor function in the stimulation of vibrissae (sensory neglect) and rearing (motor response). Mice were placed between two cardboard pieces that formed a corner with a 30° angle. While maintaining the 30° angle, the boards were gradually moved toward the mouse until the mouse approached the corner, reared upward, and turned 180° to face the open end. The direction (left or right) in which the mouse turned was recorded for each trial. Ten trials were performed for each mouse.
# For the sensory neglect task (adhesive tape removal task), adhesive tape was placed on the planter region of the forward paw (right and left) of each mouse. The time from which the tape was applied to when the mouse successfully removed the tape was recorded for each paw. A maximum of 300 s for each paw was allowed.
# Fluoro-Jade® B staining: Neurodegeneration of cells was assessed in mice with collagenase-induced ICH using Fluoro-Jade® B staining. 40 μM brain sections were mounted on gelatin-coated slides and dried at room temperature overnight. The sections were immersed in a graded series of alcohol solutions before being immersed in a 0.06% potassium permanganate (KMnO4) solution for 15 min. Sections were washed with water before being immersed in a 0.001% Fluoro-Jade® staining solution with gentle shaking in the dark for 30 min. The sections were then washed with water and dried overnight at room temperature in the dark before being dehydrated and coverslipped with DPX. Fluoro-Jade® B staining was examined within perihematoma or hematoma regions using a fluorescence microscope. Quantification of Fluoro-Jade® B staining was performed using three brain sections (anterior to posterior of hematoma) using Metamorph analysis.
# The vehicle or NAC was then administered daily up to 7 days following the ictus. Neuronal loss was determined using a non-specific marker of neurodegeneration, Fluoro-Jade® staining. […] Mouse behavior was assessed using a corner task (spatial neglect) and an adhesive tape removal task (sensory neglect). Mouse behavior was assessed on day 1, 3, and 7 after the induction of ICH.
# [3] = test system: ALOX5; experiment: ALOX5 mRNA levels in hemin-treated primary cortical neurons (RT-PCR); format: cell-based, mouse; settings: NAC 1 mM
# Method: (§1) Quantitative real-time PCR: Total RNA was prepared using a NucleoSpin® RNA II kit. Duplex real-time PCR reactions were performed with gene expression assays using 6-carboxyfluorescein-labeled probes for ALOX5 (Mm 01182747_m1) and ALOX5AP (Mm 01218551_m1). Expression levels were normalized to β-actin gene expression levels, which were determined with a VIC™-labeled probe. All experiments were performed using a real-time PCR system.
# (§2) The abilities of hemin and NAC to induce increases in ALOX5 and ALOX AP mRNA levels were examined. […] Consistent with the protein data (FIG. 17), hemin induced increases in ALOX AP and ALOX5 mRNA levels in a time-dependent manner.
# [4] = test system: ALOX AP; experiment: ALOX AP mRNA levels in hemin-treated primary cortical neurons (RT-PCR); format: cell-based, mouse; settings: NAC 1 mM
# Method: as §1, §2
# [5] = test system: total glutathione; experiment: Total glutathione levels in neurons by HPLC; format: cell-based, mouse; settings: 0.1 or 1.0 mM NAC, presence or absence of hemin
# Excerpt: Cysteine is the rate-limiting precursor for the synthesis of glutathione with γ-glutamylcysteine synthetase and glutathione synthetase. NAC undergoes hydrolysis to liberate cysteine, which is transported by the alanine-serine cysteine (ASC) system. To determine whether NAC-induced protection from heme requires glutathione, glutathione synthesis was inhibited using buthionine sulfoximine (BSO), a selective inhibitor of γ-glutamylcysteine synthetase, the rate limiting step in glutathione synthesis. The necessity of a NAC-induced increase in glutathione, and whether NAC-induced protection could be abrogated were evaluated. A reduction in glutathione levels was measured using HPLC. […] In the presence of hemin, the absolute levels of glutathione were reduced. […] Significance was determined by two-way ANOVA followed by Bonferroni's comparison test, from three independent experiments.
# [6] = test system: total glutathione; experiment: Total glutathione levels in striatum of collagenase-infused ICH mice by HPLC; format: in vivo, mouse; settings: ICH mice after NAC treatment
# Excerpt: (§3) Total glutathione levels were unchanged after NAC treatment in ICH mice. […] FIG. 29 illustrates an experimental design to study the effect of NAC on total glutathione levels in the striatum of a collagenase infusion mouse model of ICH.
# [7] = test system: Chac1; experiment: Chac1 gene expression in ICH mice by quantitative RT-PCR; format: in vivo, mouse; settings: ICH mice after NAC treatment
# Excerpt: as §3, with “ICH. […] FIG. 31 illustrates that ICH-induced ATF4 dependent Chac1 degraded glutathione to 5-oxoproline.” for “ICH.”
# [8] = test system: ICH model of rats
# [9] = NAC 40 mg/kg i.p. and/or PGE2 10 μM ICV, days 1, 3, 7
smiles,measurement,setting,value
"CC(=O)N[C@@H](CS)C(=O)O [NAC, N-acetylcysteine]",EC50,[1],500 µM
same,Hematoma size by light microscopy,[2]; 75 mg/kg or 300 mg/kg NAC vs control ICH group,No significant difference
same,Adhesive tape removal task (sensory neglect),"[2]; 300 mg/kg NAC, days 1, 3, 7",improvements in sensory neglect were observed
same,Corner turn task deficits (spatial neglect),"[2]; 300 mg/kg NAC, days 1, 3, 7",corrected by administration of 300 mg/kg NAC
same,Sensory neglect (adhesive tape removal task) behavioral deficits,[2]; [9],no effect
same,Spatial neglect (corner task) behavioral deficits,[2]; [9],no effect
same,Neuronal degeneration in perihematomal regions (Fluoro-Jade staining),[2]; NAC 40 mg/kg i.p. daily 7 days and/or dmPGE2 10 μM ICV 2 h post-injury,no significant effect
same,Neuronal degeneration in perihematomal regions (Fluoro-Jade staining),"[2]; NAC 300 mg/kg I.P. daily from 2 h post-ICH, day 7",reduced neuronal degeneration in perihematomal regions
same,Collagenase activity by hematoma size,"[2]; NAC 300 mg/kg, 24 h after collagenase injection",did not inhibit or affect collagenase activity
same,Hemin-induced ALOX5 expression,[3],blocked the expression of ALOX5
same,Hemin-induced ALOX AP expression,[4],blocked the expression of ALOX AP
same,Total glutathione levels in neurons,[5],dose-dependently increased the total glutathione levels
same,Total glutathione levels in striatum,[6],unchanged
same,ATF4-regulated Chac1,[7],decreased after NAC treatment
same,Lesion volume and functional recovery,"[8]; 40 mg/kg or 75 mg/kg, 2 h post-ICH",not effective in reducing lesion volume or improving functional recovery
same,Toxicity of higher doses,[8]; 300 mg/kg,"caused significant toxicity in rats, including paralytic ileus and/or death"
same,Highest dose tolerated without toxicity,[8]; ICH model,40 mg/kg
